Experimental data: patent US6713492B1, “N-acyloxylated cycloalkyl compounds, composition containing the same and methods of use therefor” (Daiichi Radioisotope Laboratories, Ltd., priority 1998, dated 2004)

Experiments:
Esterase, Porcine Liver = assay: Test for measuring enzyme activity: hydrolysis of the sample by esterase, followed by ESR; assay type: in vitro ADME; details: 1 mM sample solution, esterase 0.2-200 U/ml in phosphate buffered saline pH7.4, one minute, oxidised to nitroxide
Description: Capability of enzyme (esterase) activity determination by ESR using 1-acetoxy-3-carbamoyl-2,2,5,5-tetramethylpyrrolidine was examined. Esterase (3360 U/ml, manufactured by Sigma Co., Esterase, Porcine Liver) was diluted with a phosphate buffered saline solution (pH7.4, 67 mM) to concentrations of 0.2, 2, 20, and 200 U/ml. 100 μl of each diluent was added to 100 μl of a 1 mM sample solution, and allowed to stand for one minute. Specifically, the sample was converted into a hydroxylamine derivative using the esterase. Next, 10 μl of 10 mM sodium periodide phosphate buffered saline solution was added. Specifically, the hydroxylamine derivative produced was converted into a nitroxide derivative which can be measured by ESR. Finally, this solution is suctioned into a flat cell (manufactured by Labotech Co.) to measure ESR spectrum using “JES-REIX” manufactured by JEOL Ltd after one minute.
In addition, it was confirmed that the esterase activity can be measured by using this reaction.

rat brain = assay: Measurement of ESR-CT image of rat brain after intraperitoneal administration; assay type: in vivo, Wister male rats; details: 6 ml of 150 mM saline solution intraperitoneally, ESR-CT 20 minutes after administration
Description: 6 ml of 150 mM physiological saline solution of 1-acetoxy-3-carbamoyl-2,2,5,5-tetramethylpyrrolidine was intraperitoneally administered to Wister male rats (200 g, age: nine weeks) anesthesized with pentobarbital. The head of the rat was secured so that the part of the head 9 mm ahead of the external auditory meatus came to the center of the resonator. ESR-CT was measured 20 minutes after administration. The measuring conditions of ESR-CT were as follows.
(Measurement Conditions of ESR-CT)
Instrument: 700 MHz band electron spin resonance apparatus
Microwave frequency: 720 MHz
Central magnetic field: 25 mT
Magnetic field sweep width: 15 mT
Magnetic field modulation width: 0.2 mT
Magnetic field modulation frequency: 100 kHz
Magnetic field gradient: 1 mT/cm
Magnetic field gradient rotational angle: 20°
The measured black-and-white picture image is shown in FIG. 2, and a color picture image is attached as a reference figure. In FIG. 2, A is a rat brain ESR-CT image 1 mm posterior to the bregma, and B is a rat brain ESR-CT image 3 mm posterior to the bregma. FIG. 3 is a drawing describing the part of the brain indicated by the anatomical chart in FIG. 2.

CC(=O)OC1CC(C)(C)N(OC(C)=O)C(C)(C)C1 [Example 5, 1,4-Diacetoxy-2,2,6,6-tetramethylpiperidine]
melting point: 72 to 73 °C

CC1(C)CC(C(N)=O)C(C)(C)N1OC(=O)c1ccccc1 (stereo not drawn) [Example 4, 1-Benzoyloxy-3-carbamoyl-2,2,5,5-tetramethylpyrrolidine]
melting point: 199 to 201 °C

CCC(=O)ON1C(C)(C)CC(C(N)=O)C1(C)C (stereo not drawn) [Example 2, 1-Propionyloxy-3-carbamoyl-2,2,5,5-tetramethylpyrrolidine]
melting point: 116 to 117 °C

CC(=O)ON1C(C)(C)CC(C(N)=O)C1(C)C (stereo not drawn) [1-Acetoxy-3-carbamoyl-2,2,5,5-tetramethylpyrrolidine]
hydrolysis by esterase (ESR signal strength vs esterase concentration) (Esterase, Porcine Liver): hydrolyzed by esterase in a short time and the reaction is quantitative | transfer to the brain and conversion to nitroxide derivative (rat brain): hydrolyzed after being transferred to the brain, and oxidized by intracerebral active oxygen and free radicals into a nitroxide derivative | melting point: 150 to 151 °C
